Data from publication PMC12188386, “Selective CBP/EP300 Bromodomain Inhibitors: Novel Epigenetic Tools to Counter TNF-α-Driven Inflammation” (JACS Au, 2025).

How the values were obtained:
T-47D = test: NCI-60 one-dose screen; format: cell-based, human; conditions: 10 µM, 48 h, Breast Cancer
Procedure: (§1) Adapted from NCI-60 Screening Methodology, one-dose screen:20 Briefly, human tumor cell lines, grown in RPMI 1640 containing 5% FBS and 2 mM L-glutamine, were plated in 96 well plates at densities ranging from 5,000 to 40,000 cells/well 24 h prior to addition of test compounds (here 10 μM 2). 400x solutions of test compounds were prepared in DMSO, then diluted to 2x in medium supplemented with 50 μg/mL gentamicin. 100 μl of this 2x stock was added to cells previously plated in 100 μl medium, resulting in the desired final compound concentration. Cells were fixed in situ with cold TCA: untreated cells at the time of compound addition (Tz) and treated cells 48 h after addition of compound (Ti). Cells were washed, then su f rh damine s uti n μ at . w/v in acetic acid was added to each well and incubated for 10 minutes at room temperature. After washing again, the plates were air dried and bound stain solubilized with 10 mM Trizma base before absorbance was […]
(§2) Percentage growth (%Growth) was calculated as follows:
(§3) when Ti ≥ Tz, %Growth = Ti − Tz x 100 where Ti = absorbance from compound treated cells, Tz = absorbance from untreated cells at time zero, and C = absorbance from control (DMSO) treated cells. […]

NCI-H460 = test: NCI-60 one-dose screen; format: cell-based, human; conditions: 10 µM, 48 h, Non-Small Cell Lung Cancer
Procedure: as §1, §2, §3

HT29 = test: NCI-60 one-dose screen; format: cell-based, human; conditions: 10 µM, 48 h, Colon Cancer
Procedure: as §1, §2, §3

LOX IMVI = test: NCI-60 one-dose screen; format: cell-based, human; conditions: 10 µM, 48 h, Melanoma
Procedure: as §1, §2, §3

PC-3 = test: NCI-60 one-dose screen; format: cell-based, human; conditions: 10 µM, 48 h, Prostate Cancer
Procedure: as §1, §2, §3

SK-MEL-2 = test: NCI-60 one-dose screen; format: cell-based, human; conditions: 10 µM, 48 h, Melanoma
Procedure: as §1, §2, §3

[1] = tested on: TNF-α-induced IL-8 secretion from THP-1 cells; test: cytokine protein measurement (LEGENDPlex); format: cell-based, human; conditions: 10 ng/mL TNF-α, 1 μM compound
Procedure: For cytokine expression determination, 5x10^5 THP-1 cells were plated on 12 well plates the day prior to treatment with 10 ng/mL recombinant human TNF -α (aa 77-233) protein (R&D systems, 10291 -TA) and compounds at a final concentration of 0.1 % DMSO. In all cases, total […]
Cytokine protein measurements
THP-1 cells were plated and treated as for the quantitative RT -PCR, then the cell culture medium was harvested by pelleting the cells (300g, 3min) and taking the supernatant .
Cytokine protein concentrations were determined using the LEGENDPlexTM Human Inflammation Panel 1 (BioLegend) assay with 25 µL of culture medium following the manufacturer’s instructi ns. amp es were ana zed f w c t metr n an rtessa Biosciences), and data was analyzed using LEGENDPlex software (BioLegend).

CBP = CBP (Homo sapiens, UniProt Q92793); test: commercial Bromoscan assay; format: binding
Procedure: was used as the calibration curve. To obtain saturated solutions of the compounds of interest, in duplicates 4.4 µL of a 10 or 5 mM stock in DMSO was added to 436 µL Buffer (PBS, pH = 7.4), to give a final concentration of 100 or 50 µM. Samples were incubated on a shaker (500 rpm) at 37°C for 90 minutes and then filtered (Millex-GV 13 mm, 0.22 µm). 304 µL of the filtrate was mixed with 76 µL of acetonitrile on a dilution plate, from which 350 µL was transferred to a UV-plate and UV-absorption was read using a SpectraMax M5 (Molecular devices). The absorbance was blank-corrected and compared to the calibration curve to […]
solubility. […]
lower solubility (2) compounds respectively in a 12.5 w/v% CAPTISOL® solution in water. […] Based on the known density of 12.5 % CAPTISOL® solution (d = 1.05755 g/mL at 25 °C), the precise weight of the resulting solution and so the required amount of water by weight was calculated. […] In duplicates, aliquots of the filtrates were taken and diluted with blank 12.5 % CAPTISOL® water solution in either a 1:14 (higher sol. compounds) or 1:7 (lower sol. compounds) ratio, 350 µL was transferred to a 96-Well Plate (Greiner, UV-star) then UV absorption (240-400 nm, 10 nm steps) was measured using a SpectraMax M5 (Molecular devices). […] The calculated concentrations are available in Table S4. […]
The bromodomain concentration in the eluates was measured by qPCR. […]

CBP, sequence (Q92793 1085-1192 limits assumed): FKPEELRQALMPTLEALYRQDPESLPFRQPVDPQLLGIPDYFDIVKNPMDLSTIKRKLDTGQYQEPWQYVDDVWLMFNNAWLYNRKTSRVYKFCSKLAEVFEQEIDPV

## Cc1cc2c(NC(=O)c3cc(NC(=O)c4ccco4)cc(-c4ccn(C)n4)c3)cccc2nn1 [Compound 2]
T-47D
  %Growth: 44%
NCI-H460
  %Growth: 18%
HT29
  %Growth: 21%
LOX IMVI
  %Growth: 34%
PC-3
  %Growth: 54%
SK-MEL-2
  %Growth: 18%
[1]
  TNF-α-induced IL-8 protein secretion: significantly reducing its TNF-α-induced secretion
CBP
  Kd: 9 nM
